Test results published in article PMC5517430, “2,3,7,8-Tetrachlorodibenzo-p-dioxin (TCDD)-elicited effects on bile acid homeostasis: Alterations in biosynthesis, enterohepatic circulation, and microbial metabolism” (Scientific Reports, 2017).
“And” between values parts separate entries of the source, which are not always exact repeats. Identical values can stand only once.

How the values were obtained:
Type in all cases: in vivo, mouse
[1] = test system: bile acid mixture; assay: Hydrophobicity index (HIx) of bile acid mixtures in liver, serum and feces; settings: male mice
Text: In general, bile acid toxicity increases with hydrophobicity, [39], which depends on ionization, hydroxylation, and conjugation (taurine, glycine, sulfate, glucoronate)[40]. The potential toxicity of a bile acid mixture can be estimated by calculating the hydrophilic-hydrophobic balance using the hydrophobicity index (HIx) of each bile acid species in the mixture, as described by Heuman[41]. […] Consequently, the shift towards increased hydrophobicity is primarily driven by a decrease in the relative abundance of T-α-MCA, a highly hydrophilic species.

[2] = test system: bile acids; assay: HRAM-LC-MS analysis of bile acids in liver, serum and feces; settings: male mice
Description: Serum (10 µL) was added to 10 µL of a 20 ng/µL stock solution of deuterated (d4) glycochenodeoxycholic acid (GCDCA, from Steraloids, Inc.) in methanol, and extracted with ice-cold methanol as previously described. Frozen liver samples (50 mg) or dried fecal pellets (50 mg) were combined with 10 µL of 20 ng/µL d4-GCDCA stock solution and 1.0 mL of ice-cold methanol, and homogenized with 0.5 mm zirconium oxide beads using an air-cooled Bullet Blender (NextAdvance). Extracts were dried under vacuum, reconstituted in 2.0 mL of 50% methanol, filtered through 0.2 µm nylon membranes (Pall Life Sciences), and stored at −80 °C.
Bile acids were analyzed by high resolution/accurate mass (HRAM)-LC-MS using an Agilent 1260 capillary HPLC coupled to a Thermo Scientific LTQ-Orbitrap Velos mass spectrometer. Extracts (2 µL) were injected into water containing 0.1% formic acid, and loaded onto an inline peptide Opti-Trap (Optimize Technologies) for 3.0 min at 5 µL/min for desalting and concentration. Bile acids were then eluted by a 30 min water/acetonitrile gradient from 98% water containing 0.1% formic acid to 95% acetonitrile containing 0.1% formic acid (modified from ref. [73]) and separated by a ProntoSil C18AQ 200 µm × 50 mm, 3 u column (nanoLCMS Solutions) at a flow rate of 2 µL/min. The column eluent was introduced to the LTQ-Orbitrap Velos mass spectrometer by an Advance nano-ESI source (Michrom BioResources) at a spray voltage of −1.7 kV. High resolution (R = 100,000 at 400 m/z) negative ion mass spectra were collected over 300–900 m/z. The ion transfer tube of the mass spectrometer was maintained at 250 °C, and the S-lens was set to 50%. Appropriate sample dilution factors were determined empirically to ensure a linear range of detector response. Chromatographic peak alignment, feature detection, quantitation and bile acid identification were performed using MAVEN[75] and SECD-LIMSA[76] software. All bile acids were identified by comparison of retention time and accurate mass data against reference standards. Relative quantitation was performed against the deuterated GCDCA internal standard. TCDD-elicited changes in bile acid species are reported as fold changes relative to vehicle controls.

[3] = test system: Slc6a6; assay: Hepatic RNA-Seq differential gene expression (fold change, P1(t), ED50, BMD, BMDL); settings: C57BL/6, mouse, liver, oral; male mice, TCDD every 4 d for 28 d
Description: Frozen ileal epithelium scrapings and liver samples were homogenized in TRIzol (Ambion, Waltham, MA) using a Mixer Mill 300 tissue homogenizer (Retsch, Germany) and total RNA was isolated as previously described. RNA was quantified using a Nano-drop spectrophotometer (Thermo Scientific, Wilmington, DE) at 260 nm, and purity was assessed using the A260/A280 ratio and the Caliper LabChip GX (Perkin Elmer, Waltham, MA).
Dose-dependent gene expression was examined using RNA-Seq performed at the MSU Research Technology Support Facility (RTSF) Genomics Core (rtsf.natsci.msu.edu/genomics). Ileal libraries from three independent biological replicates (n = 3) were prepared using the Ovation Mouse RNA-Seq System 1–16 sample preparation kit (NuGen, San Carlos, CA), with an additional DNase step. Libraries were quantified and sequenced as previously described, using a read depth of ~30 M per sample[33], [67]. Quality was determined using FASTQC v0.11.3 and adaptor sequences were removed using Trimmomatic v0.33. Reads were mapped to the mouse reference genome (GRCm38 release 81) using Bowtie2 v2.2.6 and TopHat2 v2.1.0. Alignments were converted to SAM format using SAMTools v1.2.0. For TCDD-mediated differential gene expression, fold changes were calculated relative to vehicle controls. Hepatic RNA-Seq analysis was previously published. Genes were considered differentially expressed if |fold change| ≥ 1.5 and statistical P1(t) value ≥ 0.8 at one or more doses. RNA-Seq datasets for the ileal epithelium and liver were deposited in the Gene Expression Omnibus (GEO; accession number GSE89430 and GSE87519, respectively). The RNA-Seq results (fold changes, P1(t) values) for each gene discussed in the manuscript have been compiled in Supplementary Table S1. […] Estimation of benchmark dose (BMD) and BMD lower confidence limit (BMDL) was performed using BMDExpress[69] as previously described, and has been included in Supplementary Table S1.

[4] = liver, 10 µg/kg TCDD every 4 d for 28 d, relative to vehicle
[5] = liver, 30 µg/kg TCDD every 4 d for 28 d, relative to vehicle
[6] = liver, dose not stated, 3–30 µg/kg TCDD
[7] = liver, dose-dependent, 3–30 µg/kg TCDD
[8] = serum, 30 µg/kg TCDD every 4 d for 28 d, relative to vehicle

SMILES: Clc1cc2c(cc1Cl)Oc1cc(Cl)c(Cl)cc1O2 [TCDD, 2,3,7,8-tetrachlorodibenzo-p-dioxin]
- Shift of fecal bile acid mixture HIx ([1]; feces, TCDD): moderate increase in hydrophobicity
- Shift of hepatic bile acid mixture HIx ([1]; liver, 3–30 µg/kg TCDD every 4 d for 28 d): toward greater hydrophobicity
- Shift of serum bile acid mixture HIx ([1]; serum, TCDD every 4 d for 28 d): more hydrophilic
- Deoxycholic acid disulfate DCA-di-SO4, Fold Change FECES ([2]; feces, 30 µg/kg TCDD, relative to vehicle, n = 2 cages): 4.9 fold
- Taurolithocholic acid TLCA, Fold Change FECES ([2]; feces, 30 µg/kg TCDD, relative to vehicle, n = 2 cages, ∞ = detected in treated animals but not controls): undetectable in controls to detectable in treated mice
- Fecal cholic acid 7-sulfate (CA-7-SO4), fold decrease ([2]; feces, 30 µg/kg TCDD): 55.2 fold
- Fecal taurocholic acid 3-sulfate (TCA-3-SO4), fold decrease ([2]; feces, 30 µg/kg TCDD): 10.3 fold
- Fecal α-MCA, fold decrease ([2]; feces, 30 µg/kg TCDD): 10.3 fold
- Total fecal bile acids, fold decrease ([2]; feces, 30 µg/kg TCDD): 2.8 fold
- Taurolithocholic acid TLCA, Fold Change LIVER [2, 4]: 72.1 fold
- Total Bile Acids, Fold Change LIVER [2, 4]: 2.1 fold
- Cholic acid CA, Fold Change LIVER [2, 5]: 4.7 fold
- Taurolithocholic acid TLCA, Fold Change LIVER [2, 5]: > 200 fold and 233.8 fold
- Total Bile Acids, Fold Change LIVER [2, 5]: 4.6 fold
- Effect on hepatic CDCA ([2]; liver, 3–30 µg/kg TCDD): no effect
- Effect on hepatic α/β-MCA ([2]; liver, 3–30 µg/kg TCDD): no effect
- Hepatic glycocholic acid (GCA), fold increase [2, 6]: 3.9 fold
- Hepatic tauro-α-muricholic acid (T-α-MCA), fold increase [2, 6]: 3.7 fold
- Hepatic taurocholic acid (TCA), fold increase [2, 6]: 9.7 fold
- Total hepatic conjugated primary bile acid levels, max fold increase [2, 7]: 4.7 fold
- Total hepatic levels of conjugated secondary bile acids, max fold increase [2, 7]: 77.7 fold
- Cholic acid CA, Fold Change SERUM [2, 8]: 58.2 fold
- Deoxycholic acid DCA, Fold Change SERUM [2, 8]: 79.7 fold
- Glycocholic acid GCA, Fold Change SERUM [2, 8]: 134.4 fold
- Muricholic acid (α) α-MCA, Fold Change SERUM [2, 8]: 97.0 fold
- Muricholic acid (β) β-MCA, Fold Change SERUM [2, 8]: 52.8 fold
- Taurocholic acid TCA, Fold Change SERUM [2, 8]: 298.9 fold
- Total Bile Acids, Fold Change SERUM [2, 8]: 45.4 fold
- fold induction at 28 d [3]: 1.8
